# Source: patent US20260109707A1, “HETEROBIFUNCTIONAL COMPOUNDS AND METHODS OF TREATING DISEASE” (Halda Therapeutics OpCo. Inc., priority 2022, published 2026)
# Like-named read-outs stand apart in the source and are kept apart here.
# Tests used:
# [1] = system: T-Rex 293 cell line SC3 cells lacking increased expression of androgen receptor protein; assay: Cellular growth inhibition assay, T-Rex 293 SC3 cells without doxycycline (CellTiter-Glo, 72 hours); type: cell-based; conditions: T-Rex 293 cell line SC3 cells not exposed to doxycycline (lacking increased androgen receptor expression)
# Procedure, shortened: (§1)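 Growth inhibition is measured in an inducible AR-expressing T-Rex 293 clone, SC3, cultured with or without 10 ng/mL doxycycline in hormone-depleted medium. Test compounds are applied for 72 hours. GI50 values derive from CellTiter-Glo 2.0 signal fitted by four-parameter regression.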
# [2] = system: T47D cells; assay: Cellular growth inhibition assay for T47D cells (CellTiter-Glo, 72 hours); type: cell-based, human; conditions: 72 hours treatment
# Procedure, shortened: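 Cells are plated at 3000/well and allowed 24 h before treatment. Test compound in medium containing 0.5% DMSO is then added, with DMSO-only wells as negative control, and plates are incubated 72 h at 37 °C. ATP luminescence (CellTiter-Glo 2.0) is then fitted to four parameters to derive GI50.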
# [3] = system: T-Rex 293 cell line SC3 cells having increased expression of androgen receptor protein due to exposure to doxycycline; assay: Cellular growth inhibition assay, T-Rex 293 SC3 cells with doxycycline (CellTiter-Glo, 72 hours); type: cell-based; conditions: T-Rex 293 SC3 cells with increased androgen receptor expression due to doxycycline (10 ng/mL)
# Procedure, shortened: as §1
# [4] = system: VCaP cells; assay: Cellular growth inhibition assay for VCaP cells (CellTiter-Glo, 72 hours); type: cell-based, human
# Procedure, shortened: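 Luminescent viability signal after 72 h of compound exposure gave GI50 values by four-parameter nonlinear regression. Compounds were added in 0.5% DMSO to cells plated 24 h earlier at 5000/well in DMEM containing 10% FBS.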
SMILES,"GI50 ([2]; Homo sapiens, T47D, 72 h) [nM]","GI50 ([4]; Homo sapiens, VCaP, 72 h) [nM]",GI50 [2] [nM],GI50 [4] [nM],GI50 ([1]; 72 h) [nM],GI50 ([3]; 72 h) [nM],GI50 [1] [nM],GI50 [3] [nM]
CC1=NN=C2C1c1sc(C)c(C)c1C(c1ccc(C#CC3C4CN(c5ccc(C(=O)N[C@H]6CC[C@H](Oc7ccc(C#N)c(Cl)c7)CC6)nn5)CC34)cc1)=N[C@H]2Cc1ncco1 (stereo partly shown) [I-407],> 3000,< 500,–,–,> 3000,> 3000,–,–
CC1=NN=C2C1c1sc(C)c(C)c1C(c1ccc(C#CC3C4CN(c5ccc(C(=O)N[C@H]6CC[C@H](Oc7ccc(C#N)c(Cl)c7)CC6)nn5)CC34)cc1)=N[C@@H]2Cc1ncco1 (stereo partly shown) [I-408],< 500,< 500,–,–,< 500,< 500,–,–
CC1=NN=C2C1c1sc(C)c(C)c1C(c1ccc(C3CCC4(CC3)CCN(c3ccc(C(=O)N[C@H]5CC[C@H](Oc6ccc(C#N)c(Cl)c6)CC5)nn3)CC4)cc1)=N[C@H]2Cc1ncco1 (stereo partly shown) [I-409],> 3000,> 3000,–,–,> 3000,> 3000,–,–
CC1=NN=C2C1c1sc(C)c(C)c1C(c1ccc(C3CCC4(CC3)CCN(c3ccc(C(=O)N[C@H]5CC[C@H](Oc6ccc(C#N)c(Cl)c6)CC5)nn3)CC4)cc1)=N[C@@H]2Cc1ncco1 (stereo partly shown) [I-410],< 500,< 500,–,–,< 500,< 500,–,–
Cc1sc2c(c1C)C(c1ccc(CCC[C@@H]3CCCN(c4ccc(C(=O)N[C@H]5CC[C@H](Oc6ccc(C#N)c(Cl)c6)CC5)nn4)CC3)cc1)=N[C@@H](Cc1ncco1)c1nnc(C)n1-2 [I-411],< 500,< 500,–,–,< 500,< 500,–,–
Cc1sc2c(c1C)C(c1ccc(-c3ccc(C4CC5(C4)CN(c4ccc(C(=O)N[C@H]6CC[C@H](Oc7ccc(C#N)c(Cl)c7)CC6)nn4)C5)cc3)cc1)=N[C@@H](Cc1ncco1)c1nnc(C)n1-2 [I-412],< 500,500 to 1500,–,–,< 500,< 500,–,–
Cc1sc2c(c1C)C(c1ccc(N3CCN(C4CCN(c5ccc(C(=O)N[C@H]6CC[C@H](Oc7ccc(C#N)c(Cl)c7)CC6)nn5)CC4)C3=O)cc1)=NC(Cc1ncco1)c1nnc(C)n1-2 (stereo partly shown) [I-413],–,–,1500 to 3000,1500 to 3000,–,< 500,> 3000,–
Cc1sc2c(c1C)C(c1ccc(N3CCN(C4CCN(c5ccc(C(=O)N[C@H]6CC[C@H](Oc7ccc(C#N)c(Cl)c7)CC6)nn5)CC4)C3=O)cc1)=NC(Cc1ncco1)c1nnc(C)n1-2 (stereo partly shown) [I-414],–,–,< 500,< 500,–,–,< 500,< 500
Cc1sc2c(c1C)C(c1ccc(N3CCC4(CC3)CC(Cc3ccc(C(=O)N[C@H]5CC[C@H](Oc6ccc(C#N)c(Cl)c6)CC5)nn3)C4)cc1)=NC(Cc1ncco1)c1nnc(C)n1-2 (stereo partly shown) [I-415],500 to 1500,< 500,–,–,–,< 500,> 3000,–
Cc1sc2c(c1C)C(c1ccc(N3CCC4(CC3)CC(Cc3ccc(C(=O)N[C@H]5CC[C@H](Oc6ccc(C#N)c(Cl)c6)CC5)nn3)C4)cc1)=NC(Cc1ncco1)c1nnc(C)n1-2 (stereo partly shown) [I-416],–,–,< 500,< 500,–,–,500 to 1500,< 500

# Further lines, with some results ahead:
"GI50 ([2]; Homo sapiens, T47D, 72 h) [nM]","GI50 ([4]; Homo sapiens, VCaP, 72 h) [nM]",GI50 [2] [nM],GI50 [4] [nM],SMILES,GI50 ([1]; 72 h) [nM],GI50 ([3]; 72 h) [nM],GI50 [1] [nM],GI50 [3] [nM]
500 to 1500,> 3000,–,–,Cc1sc2c(c1C)C(c1ccc(OC3CC4(CCN(c5ccc(C(=O)N[C@H]6CC[C@H](Oc7ccc(C#N)c(Cl)c7)CC6)nn5)CC4)C3)cc1)=NC1(CC1)c1nnc(C)n1-2 [I-417],> 3000,< 500,–,–
< 500,< 500,–,–,Cc1sc2c(c1C)C(c1ccc(C#CC3CC4(C3)CN(c3ccc(C(=O)N[C@H]5CC[C@H](Oc6ccc(C#N)c(Cl)c6)CC5)nn3)C4)cc1)=NC1(CC1)c1nnc(C)n1-2 [I-418],< 500,< 500,–,–
< 500,< 500,–,–,Cc1sc2c(c1C)C(c1ccc(C#CC3CC4(CCCN(c5ccc(C(=O)NC6CCC(Oc7ccc(C#N)c(Cl)c7)CC6)nn5)C4)C3)cc1)=NCc1nnc(C)n1-2 (stereo not shown) [I-419],> 3000,< 500,–,–
1500 to 3000,< 500,–,–,Cc1sc2c(c1C)C(c1ccc(C#CC3CC4(CCCN(c5ccc(C(=O)N[C@H]6CC[C@H](Oc7ccc(C#N)c(Cl)c7)CC6)nn5)C4)C3)cc1)=NCc1nnc(C)n1-2 (stereo partly shown) [I-420],> 3000,< 500,–,–
500 to 1500,< 500,–,–,Cc1sc2c(c1C)C(c1ccc(C#CC3CC4(C3)CN(c3ccc(C(=O)N[C@H]5CC[C@H](Oc6ccc(C#N)c(Cl)c6)CC5)nn3)C4)cc1)=NCc1nnc(C)n1-2 [I-421],< 500,< 500,–,–
500 to 1500,< 500,–,–,Cc1sc2c(c1C)C(c1ccc(N3CCC4(CCCN(c5ccc(C(=O)N[C@H]6CC[C@H](Oc7ccc(C#N)c(Cl)c7)CC6)nn5)C4)CC3)cc1)=NCc1nnc(C)n1-2 [I-422],> 3000,< 500,–,–
500 to 1500,> 3000,–,–,Cc1sc2c(c1C)C(c1ccc(C(C)(C)C3CC4(CCCN(c5ccc(C(=O)N[C@H]6CC[C@H](Oc7ccc(C#N)c(Cl)c7)CC6)nn5)C4)C3)cc1)=N[C@@H](C)c1nnc(C)n1-2 (stereo partly shown) [I-423],1500 to 3000,< 500,–,–
500 to 1500,< 500,–,–,Cc1sc2c(c1C)C(c1ccc(OCC3CC4(CCCN(c5ccc(C(=O)N[C@H]6CC[C@H](Oc7ccc(C#N)c(Cl)c7)CC6)nn5)C4)C3)nc1)=N[C@@H](C)c1nnc(C)n1-2 (stereo partly shown) [I-424],–,< 500,> 3000,–
–,–,500 to 1500,< 500,Cc1sc2c(c1C)C(c1ccc(OCC3CC4(CCCN(c5ccc(C(=O)N[C@H]6CC[C@H](Oc7ccc(C#N)c(Cl)c7)CC6)nn5)C4)C3)nc1)=N[C@@H](C)c1nnc(C)n1-2 (stereo partly shown) [I-425],–,–,500 to 1500,< 500
500 to 1500,< 500,–,–,Cc1sc2c(c1C)C(c1ccc(C#CC3CC4(C3)CN(c3ccc(C(=O)N[C@H]5CC[C@H](Oc6ccc(C#N)c(Cl)c6)CC5)nn3)C4)nc1)=N[C@@H](C)c1nnc(C)n1-2 [I-426],< 500,< 500,–,–
–,< 500,500 to 1500,–,Cc1sc2c(c1C)C(c1ccc(N3CCC4(CCCN(c5ccc(C(=O)N[C@H]6CC[C@H](Oc7ccc(C#N)c(Cl)c7)CC6)nn5)C4)CC3)cc1)=N[C@@H](C)c1nnc(C)n1-2 [I-427],–,< 500,500 to 1500,–
500 to 1500,< 500,–,–,Cc1sc2c(c1C)C(c1ccc(N3CCC4(CCCN(c5ccc(C(=O)N[C@H]6CC[C@H](Oc7ccc(C#N)c(Cl)c7)CC6)nn5)C4)CC3)nc1)=N[C@@H](C)c1nnc(C)n1-2 [I-428],> 3000,< 500,–,–
–,–,> 3000,< 500,Cc1sc2c(c1C)C(c1ccc(N3CCC4(CCCN(c5ccc(C(=O)N[C@H]6CC[C@H](Oc7ccc(C#N)c(Cl)c7)CC6)nn5)C4)CC3)cc1)=N[C@@H](C)c1nnc(C)n1-2 [I-429],–,–,> 3000,< 500
–,–,< 500,< 500,Cc1sc2c(c1C)C(c1ccc(N3CCC4(CC3)CCN(c3ccc(C(=O)N[C@H]5CC[C@H](Oc6ccc(C#N)c(Cl)c6)CC5)nn3)C4)cc1)=N[C@@H](C)c1nnc(C)n1-2 [I-430],–,–,< 500,< 500
500 to 1500,–,–,> 3000,Cc1sc2c(c1C)C(c1ccc(OC3CC4(CCN(c5ccc(C(=O)N[C@H]6CC[C@H](Oc7ccc(C#N)c(Cl)c7)CC6)nn5)CC4)C3)nc1)=N[C@@H](C)c1nnc(C)n1-2 [I-433],–,< 500,500 to 1500,–
